Entries after “also recorded” stand apart in the source; their conditions may differ. Like-named read-outs stand apart in the source and are kept apart here. Blank lines part the entries; values can stand above or below the compound they belong to.
Columns and labels:
MEK7 = target: T1, MEK7 (Homo sapiens, UniProt O14733); test: ADP-Glo biochemical kinase assay, MEK7; details: functional profiling assay
T1 sequence (O14733 1-419): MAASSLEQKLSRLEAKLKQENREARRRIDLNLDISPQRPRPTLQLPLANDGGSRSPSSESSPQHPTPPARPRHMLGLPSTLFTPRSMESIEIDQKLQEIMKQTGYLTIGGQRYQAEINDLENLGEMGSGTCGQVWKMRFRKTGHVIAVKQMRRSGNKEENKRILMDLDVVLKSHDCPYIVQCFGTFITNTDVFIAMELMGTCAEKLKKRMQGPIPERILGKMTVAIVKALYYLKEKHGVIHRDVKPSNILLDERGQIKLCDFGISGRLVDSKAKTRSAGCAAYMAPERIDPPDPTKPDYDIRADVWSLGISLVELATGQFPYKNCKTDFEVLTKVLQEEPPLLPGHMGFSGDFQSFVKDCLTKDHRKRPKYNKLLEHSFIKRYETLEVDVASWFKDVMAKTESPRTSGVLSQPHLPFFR

MEK5 = MEK5 (Homo sapiens, UniProt Q13163); test: ADP-Glo biochemical kinase assay, MEK5; details: functional profiling assay
Chain of MEK5 (Q13163 whole entry): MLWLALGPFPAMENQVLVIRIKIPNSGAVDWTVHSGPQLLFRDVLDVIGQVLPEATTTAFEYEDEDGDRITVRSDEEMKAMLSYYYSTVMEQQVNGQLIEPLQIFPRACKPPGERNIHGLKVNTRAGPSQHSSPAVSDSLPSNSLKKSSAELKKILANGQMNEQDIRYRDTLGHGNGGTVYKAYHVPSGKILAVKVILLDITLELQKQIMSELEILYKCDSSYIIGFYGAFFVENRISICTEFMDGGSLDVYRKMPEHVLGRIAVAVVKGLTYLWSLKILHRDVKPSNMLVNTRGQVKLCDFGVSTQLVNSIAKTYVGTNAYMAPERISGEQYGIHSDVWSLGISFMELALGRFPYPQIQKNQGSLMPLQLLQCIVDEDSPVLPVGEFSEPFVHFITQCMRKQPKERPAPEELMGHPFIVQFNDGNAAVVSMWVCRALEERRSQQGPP

c-KIT = details: read-out: inhibition of c-KIT, cell-free assay; cited from earlier work
PDGFR = details: read-out: inhibition of PDGFR, cell-free assay; cited from earlier work
VEGFR = details: read-out: inhibition of VEGFR, cell-free assay; cited from earlier work
MEK4 = target: T2, MEK4 (Homo sapiens, UniProt P45985); test: ADP-Glo biochemical kinase assay, MEK4; details: read-out: IC50 against MEK4, ATP below Km
T2 sequence (P45985 1-399): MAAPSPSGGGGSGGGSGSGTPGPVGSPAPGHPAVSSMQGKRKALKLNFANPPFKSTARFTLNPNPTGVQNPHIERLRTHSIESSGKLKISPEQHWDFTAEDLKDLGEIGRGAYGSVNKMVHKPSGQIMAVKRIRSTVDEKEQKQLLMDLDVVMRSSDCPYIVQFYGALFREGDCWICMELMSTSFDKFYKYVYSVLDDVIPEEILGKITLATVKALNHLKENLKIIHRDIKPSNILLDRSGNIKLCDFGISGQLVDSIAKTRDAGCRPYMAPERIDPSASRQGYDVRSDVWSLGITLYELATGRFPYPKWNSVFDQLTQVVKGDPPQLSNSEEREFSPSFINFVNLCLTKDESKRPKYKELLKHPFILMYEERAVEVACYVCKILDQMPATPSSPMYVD

MEK6 = target: T3, MEK6 (Homo sapiens, UniProt P52564); test: ADP-Glo biochemical kinase assay, MEK6
T3 sequence (P52564 1-334): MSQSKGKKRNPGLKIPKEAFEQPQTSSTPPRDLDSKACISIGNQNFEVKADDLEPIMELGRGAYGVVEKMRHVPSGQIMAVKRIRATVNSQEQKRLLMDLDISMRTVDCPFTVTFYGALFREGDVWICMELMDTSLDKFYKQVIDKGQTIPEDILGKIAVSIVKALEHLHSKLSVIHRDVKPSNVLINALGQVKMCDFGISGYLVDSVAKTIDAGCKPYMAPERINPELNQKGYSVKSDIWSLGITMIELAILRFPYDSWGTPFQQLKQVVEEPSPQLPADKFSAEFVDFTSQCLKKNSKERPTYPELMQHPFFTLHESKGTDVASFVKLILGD

Compound: CCN1CCN(Cc2ccc(NC(=O)Nc3ccc(Oc4cc(NC)ncn4)cc3)cc2C(F)(F)F)CC1 [AST-487]
inhibition of MEK7 (in words) (MEK7): inhibition; also recorded: strongly inhibited
inhibition of MEK5 (in words) (MEK5): strongly inhibited

Compound: 5-[[4-[(2, 3-Dimethyl-2 H-indazol-6-yl) methylamino]-2-pyrimidinyl] amino]-2-methyl-benzene-sulfonamide [Pazopanib]
IC50 (c-KIT): 0.14 µM
IC50 (PDGFR): 0.084 µM
IC50 (VEGFR): 0.01 to 0.047 µM

Compound: O=C(c1c(F)cccc1F)c1c[nH]c2ncc(Cl)cc12 [compound 3a]
IC50 (MEK4): 6.9 µM
IC50 (MEK6; read-out: IC50 against MEK6, ADP-Glo, ATP below Km): 75.1 µM

Now from value to compound:

inhibition of MEK7 (in words) (MEK7): inhibition
Compound: CN(C)C[C@@H]1CCn2cc(c3ccccc32)C2=C(C(=O)NC2=O)c2cn(c3ccccc23)CCO1 [LY-333531]

IC50 (MEK6): 60 µM
Compound: CCCS(=O)(=O)Nc1ccc(F)c(C(=O)c2c[nH]c3ncc(Cl)cc23)c1F [PLX-4720]

Reference: PMC5652073 (ACS chemical biology, 2017)
